Where two headings read alike, the source gives them in different places.

We go through 22 molecules from patent US20150291610A1, “C20' Urea Derivatives of Vinca Alkaloids” (THE SCRIPPS RESEARCH INSTITUTE, priority 2012, published 2015).

For data set [1], the system named is HCT116 (human colorectal carcinoma) cells. Conditions: cited from earlier work; for IC50: reported in Leggans et al., Org. Lett. 2012.
Data set [2] relates to L1210 (mouse lymphocytic leukemia) cells. As to conditions: reported in Leggans et al., Org. Lett. 2012; cited from earlier work.
Data set [3] has as its system HCT116/VM46 (vinblastine-resistant strain of HCT116, Pgp over-expression) cells. As to conditions: read-out: IC50 (nM) HCT116/VM46; reported in Leggans et al., Org. Lett. 2012; cited from earlier work.
For data set [4] the test system is unchanged. As to the kind of experiment: Cell growth inhibition assay, HCT116/VM46. Conditions: for IC50: read-out: IC50 (nM) HCT116/VM46, resistant human colon cancer cell line, Pgp over-expression; for fold improvement over vinblastine, HCT116/VM46: relative to vinblastine. As to the method:
(§1) A population of cells (>1×10^6 cells/mL as determined with a hemocytometer) was diluted with an appropriate amount of Dulbecco-modified Eagle Medium (DMEM, Gibco) containing 10% fetal bovine serum (FBS, Gibco) to a final concentration of 30,000 cells/mL.
(§2) To each well of a 96-well plate (Corning Costar), 100 μL of the cell-media solution was added with a multichannel pipette. The cultures were incubated at 37° C. in an atmosphere of 5% CO2 and 95% humidified air for 24 hours. The test compounds were added to the plate as follows: test substances were diluted in DMSO to a concentration of 1 mM and 10-fold serial dilutions were performed on a separate 96-well plate. Fresh culture medium (100 μL) was added to each well of cells to constitute 200 μL of medium per well followed by 2 μL of each test agent. Compounds were tested in duplicate (n=2-8 times) at six concentrations between 0-1,000 nM or 0-10,000 nM. Following addition, cultures were incubated for an additional 72 hours.
(§3) The plates were incubated at 37° C. for either 5 minutes (L1210) or 15 minutes (HCT116 and HCT116/VM46).

Data set [5] has as its system HCT116 (human colorectal carcinoma) cells. The experiment in a line: Cell growth inhibition assay, HCT116. The class given is cell-based. Conditions: for fold more potent than vinblastine, HCT116: relative to vinblastine. As to the method:
as §1, §2, §3

The subject of data set [6] is L1210 (mouse lymphocytic leukemia) cells. The experiment in a line: Cell growth inhibition assay, L1210. It is filed as cell-based. As to conditions: L1210 murine leukemia cell line; avg of 4-16 determinations. As to the method: as §1, §2, §3
Where [7] appears, read: HCT116 human colon cancer cell line, avg of 4-16 determinations, read-out: IC50 (nM) HCT116.
The mark [8] stands for this setting: text values in pM, read-out: IC50 HCT116.

With `CCC1CC2CN(CCc3c([nH]c4ccccc34)C(C(=O)OC)(c3cc4c(cc3OC)N(C)C3C(O)(C(=O)OC)C(OC(C)=O)C5(CC)C=CCN6CCC43C65)C2)C1` (centres unmarked) [Compound 3, 20′-deoxyvinblastine], the results for the IC50 in data set [1], in data set [2] and in data set [3] were 60 nM, 50 nM and 600 nM, respectively.

In the case of `CC[C@]1(N=C=S)C[C@@H]2CN(CCc3c([nH]c4ccccc34)[C@@](C(=O)OC)(c3cc4c(cc3OC)N(C)[C@H]3[C@@](O)(C(=O)OC)[C@H](OC(C)=O)[C@]5(CC)C=CCN6CC[C@]43[C@@H]65)C2)C1` [Compound 5, 20′-isothiocyano-vinblastine], the IC50 was 530 nM in data set [1], 590 nM in data set [2] and 7000 nM in data set [3].

`CCC1(NC(C)=O)CC2CN(CCc3c([nH]c4ccccc34)C(C(=O)OC)(c3cc4c(cc3OC)N(C)C3C(O)(C(=O)OC)C(OC(C)=O)C5(CC)C=CCN6CCC43C65)C2)C1` (centres unmarked) [Compound 9]: the IC50 in data set [1] is 90 nM; in data set [2] it was 65 nM; in data set [3], 7500 nM.

As for `CCC1(NC(=O)OC)CC2CN(CCc3c([nH]c4ccccc34)C(C(=O)OC)(c3cc4c(cc3OC)N(C)C3C(O)(C(=O)OC)C(OC(C)=O)C5(CC)C=CCN6CCC43C65)C2)C1` (centres unmarked) [Compound 10], the IC50 in data set [1] was 75 nM; in data set [2], 50 nM; in data set [3], 2600 nM.

Consider `CC[C@]1(NC(=O)Nc2ccc(C(F)(F)F)cc2)C[C@@H]2CN(CCc3c([nH]c4ccccc34)[C@@](C(=O)OC)(c3cc4c(cc3OC)N(C)[C@H]3[C@@](O)(C(=O)OC)[C@H](OC(C)=O)[C@]5(CC)C=CCN6CC[C@]43[C@@H]65)C2)C1` [Compound 27], for which the IC50 was 610 nM in data set [4], 7.1 nM in data set [5] (setting [7]) and 7.3 nM in data set [6].

Turning to `CCC1(NC(=O)Nc2ccc(OC)cc2)CC2CN(CCc3c([nH]c4ccccc34)C(C(=O)OC)(c3cc4c(cc3OC)N(C)C3C(O)(C(=O)OC)C(OC(C)=O)C5(CC)C=CCN6CCC43C65)C2)C1` (centres unmarked) [Compound 28], the IC50 was 230 nM in data set [4], 2 nM in data set [5] (setting [7]) and 4.9 nM in data set [6].

Turning to `CC[C@]1(NC(=O)Nc2cccc(OC)c2)C[C@@H]2CN(CCc3c([nH]c4ccccc34)[C@@](C(=O)OC)(c3cc4c(cc3OC)N(C)[C@H]3[C@@](O)(C(=O)OC)[C@H](OC(C)=O)[C@]5(CC)C=CCN6CC[C@]43[C@@H]65)C2)C1` [Compound 29], the figures for the IC50 in data set [4], in data set [5] (setting [8]) and in data set [6] were 80 nM, 0.77 nM and 5.4 nM, respectively. Moreover, the “fold improvement over vinblastine, HCT116/VM46” value in data set [4] turned out to be 10 fold. In addition, in data set [5], the “fold more potent than vinblastine, HCT116” value is reported as approximately 10 fold.

For `CC[C@]1(NC(=O)Nc2ccccc2OC)C[C@@H]2CN(CCc3c([nH]c4ccccc34)[C@@](C(=O)OC)(c3cc4c(cc3OC)N(C)[C@H]3[C@@](O)(C(=O)OC)[C@H](OC(C)=O)[C@]5(CC)C=CCN6CC[C@]43[C@@H]65)C2)C1` [Compound 30], the IC50 is 65 nM in data set [4], 0.77 nM in data set [5] (setting [8]) and 4.8 nM in data set [6]. The “fold improvement over vinblastine, HCT116/VM46” value in data set [4] turned out to be 10 fold. Besides, the “fold more potent than vinblastine, HCT116” value in data set [5] is approximately 10 fold.

With `CC[C@]1(NC(=O)NCc2ccccc2)C[C@@H]2CN(CCc3c([nH]c4ccccc34)[C@@](C(=O)OC)(c3cc4c(cc3OC)N(C)[C@H]3[C@@](O)(C(=O)OC)[C@H](OC(C)=O)[C@]5(CC)C=CCN6CC[C@]43[C@@H]65)C2)C1` [Compound 31], the IC50 was 740 nM in data set [4], 7.3 nM in data set [5] (setting [7]) and 6.4 nM in data set [6].

Turning to `CC[C@]1(NC(=O)NCCc2ccccc2)C[C@@H]2CN(CCc3c([nH]c4ccccc34)[C@@](C(=O)OC)(c3cc4c(cc3OC)N(C)[C@H]3[C@@](O)(C(=O)OC)[C@H](OC(C)=O)[C@]5(CC)C=CCN6CC[C@]43[C@@H]65)C2)C1` [Compound 32], the IC50 in data set [4] was determined as 590 nM; in data set [5] (setting [7]) it was 6.3 nM; in data set [6], 6.3 nM.

For `CC[C@]1(NC(=O)NCc2ccccn2)C[C@@H]2CN(CCc3c([nH]c4ccccc34)[C@@](C(=O)OC)(c3cc4c(cc3OC)N(C)[C@H]3[C@@](O)(C(=O)OC)[C@H](OC(C)=O)[C@]5(CC)C=CCN6CC[C@]43[C@@H]65)C2)C1` [Compound 33], the IC50 in data set [4] was 670 nM; in data set [5] (setting [7]), 5.6 nM; in data set [6], 24 nM.

For the molecule `CC[C@]1(NC(=O)NCc2ccco2)C[C@@H]2CN(CCc3c([nH]c4ccccc34)[C@@](C(=O)OC)(c3cc4c(cc3OC)N(C)[C@H]3[C@@](O)(C(=O)OC)[C@H](OC(C)=O)[C@]5(CC)C=CCN6CC[C@]43[C@@H]65)C2)C1` [Compound 34], the figures for the IC50 in data set [4], in data set [5] (setting [7]) and in data set [6] were 530 nM, 5.1 nM and 5.4 nM, respectively.

In the case of `CC[C@]1(NC(=O)N2CCOCC2)C[C@@H]2CN(CCc3c([nH]c4ccccc34)[C@@](C(=O)OC)(c3cc4c(cc3OC)N(C)[C@H]3[C@@](O)(C(=O)OC)[C@H](OC(C)=O)[C@]5(CC)C=CCN6CC[C@]43[C@@H]65)C2)C1` [Compound 41], the IC50 in data set [4] came out at 360 nM; in data set [5] (setting [7]), 4.5 nM; in data set [6] it was 5.3 nM.

For the molecule `CC[C@]1(NC(=O)N2CCCCC2)C[C@@H]2CN(CCc3c([nH]c4ccccc34)[C@@](C(=O)OC)(c3cc4c(cc3OC)N(C)[C@H]3[C@@](O)(C(=O)OC)[C@H](OC(C)=O)[C@]5(CC)C=CCN6CC[C@]43[C@@H]65)C2)C1` [Compound 42], in data set [4] (HCT116/VM46 vs HCT116), the “activity difference between sensitive HCT116 and vinblastine-resistant HCT116/VM46” value is recorded as 10 fold. Besides, the results for the IC50 in data set [4], in data set [5] (setting [7]) and in data set [6] were 50 nM, 3.9 nM and 5.5 nM, respectively.

Regarding `CC[C@]1(O)C[C@@H]2CN(CCc3c([nH]c4ccc(F)cc34)[C@@](C(=O)OC)(c3cc4c(cc3OC)N(C)[C@H]3[C@@](O)(C(=O)OC)[C@H](OC(C)=O)[C@]5(CC)C=CCN6CC[C@]43[C@@H]65)C2)C1` [Compound 48, reference compound], the IC50 in data set [4] is 80 nM; in data set [5] (setting [7]), 0.8 nM. Moreover, the “fold improvement in activity over vinblastine” value in data set [1] (Gotoh et al., ACS Med. Chem. Lett. 2011) is 8 fold.

Regarding `CC[C@]1(NC(=O)N2CCSCC2)C[C@@H]2CN(CCc3c([nH]c4ccccc34)[C@@](C(=O)OC)(c3cc4c(cc3OC)N(C)[C@H]3[C@@](O)(C(=O)OC)[C@H](OC(C)=O)[C@]5(CC)C=CCN6CC[C@]43[C@@H]65)C2)C1` [Compound 53], the values for the IC50 in data set [4], in data set [5] (setting [7]) and in data set [6] were 50 nM, 0.88 nM and 2.1 nM, respectively.

In the case of `CC[C@]1(NC(=O)N2CCN(C)CC2)C[C@@H]2CN(CCc3c([nH]c4ccccc34)[C@@](C(=O)OC)(c3cc4c(cc3OC)N(C)[C@H]3[C@@](O)(C(=O)OC)[C@H](OC(C)=O)[C@]5(CC)C=CCN6CC[C@]43[C@@H]65)C2)C1` [Compound 54], the IC50 in data set [4] is 710 nM; in data set [5] (setting [7]), 3.4 nM; in data set [6], 7.7 nM.

Regarding `CC[C@]1(NC(=O)N2CCC(c3ccccc3)CC2)C[C@@H]2CN(CCc3c([nH]c4ccccc34)[C@@](C(=O)OC)(c3cc4c(cc3OC)N(C)[C@H]3[C@@](O)(C(=O)OC)[C@H](OC(C)=O)[C@]5(CC)C=CCN6CC[C@]43[C@@H]65)C2)C1` [Compound 56], the IC50 in data set [4] was 55 nM; in data set [5] (setting [7]), 3.1 nM; in data set [6], 5.3 nM.

For the molecule `CC[C@]1(NC(=O)N2Cc3ccc(OC)cc3C2)C[C@@H]2CN(CCc3c([nH]c4ccccc34)[C@@](C(=O)OC)(c3cc4c(cc3OC)N(C)[C@H]3[C@@](O)(C(=O)OC)[C@H](OC(C)=O)[C@]5(CC)C=CCN6CC[C@]43[C@@H]65)C2)C1` [Compound 59], the results for the IC50 in data set [4], in data set [5] (setting [7]) and in data set [6] were 8.7 nM, 0.69 nM and 0.61 nM, respectively.

In the case of `CCC1(N=[N+]=[N-])CC2CN(CCc3c([nH]c4ccccc34)C(C(=O)OC)(c3cc4c(cc3OC)N(C)C3C(O)(C(=O)OC)C(OC(C)=O)C5(CC)C=CCN6CCC43C65)C2)C1` (centres unmarked) [Compound N3], the IC50 in data set [1] was 690 nM; in data set [2], 670 nM; in data set [3], 5500 nM.

As for `CCC1(NC=O)CC2CN(CCc3c([nH]c4ccccc34)C(C(=O)OC)(c3cc4c(cc3OC)N(C)C3C(O)(C(=O)OC)C(OC(C)=O)C5(CC)C=CCN6CCC43C65)C2)C1` (centres unmarked) [NHCHO], the IC50 is 85 nM in data set [1], 65 nM in data set [2] and 6500 nM in data set [3].

As to `CCC1(NC(=O)C(F)(F)F)CC2CN(CCc3c([nH]c4ccccc34)C(C(=O)OC)(c3cc4c(cc3OC)N(C)C3C(O)(C(=O)OC)C(OC(C)=O)C5(CC)C=CCN6CCC43C65)C2)C1` (centres unmarked) [NHCOCF3], the IC50 in data set [1] was 690 nM; in data set [2] it was 660 nM; in data set [3], 8100 nM.
